In patent US7462716B2, “Statin derivatives” (Nicox S.A., priority 2003, dated 2008):
Like-named read-outs stand apart in the source and are kept apart here. Marks after values point to notes of the source that are not given here.

Tests used:
[1] = tested on: iNOS; experiment: Western blot of iNOS protein in LPS-stimulated RAW264.7 cells; assay type: cell-based
Protocol: (§1) The experiments were performed using RAW264.7 monocyte macrophage cell line. […] At the end of the incubation, the cells were harvested in lysis buffer and the protein content was measured. Western Blot of inducible iNOS and COX2 proteins (representatives of an ongoing inflammatory process) was performed. The obtained results reported in Table 2 are expressed as % reduction of optical density of each treatment vs. LPS-treated samples.

[2] = tested on: leukocyte adhesion; experiment: Ex vivo leukocyte adhesion to thrombin-stimulated arterial segments of dosed ApoE knockout mice; assay type: in vivo; details: ApoE K/O mice, pravastatin 40 mg/kg po or equimolar dose daily for 5 days
Protocol: The interaction between leukocytes and the vascular endothelium is a crucial inflammatory step in the atherogenic process.
Leukocytes were isolated from spleen, centrifuged, RBCs lysed with water. Arterial segments prepared—aortic & thoracic regions opened longitudinally and pinned out luminal side up. Radiolabelled leukocytes (^51Cr-leukocytes) are incubated with thrombin-stimulated (10 UmL−1 for 10 min.) segments for 30 min. Segments are washed with medium and adhesion measured by gamma counter.

[3] = tested on: murine hindlimb ischemia; experiment: Murine hindlimb ischemia model (capillary density, clinical outcome); assay type: in vivo, CD1 male mice
Protocol: Angiogenesis is a primary response to local tissue hypoxia and is likely involved in the restoration of blood flow in ischemic diseases such as acute coronary syndromes and occlusive peripheral vascular disease. […] After 3 days, mice were anaesthetized and left hindlimb ischemia was induced by electro-coagulation of the upper part of femoral artery. Treatment was continued for the following 2 weeks after surgery. Systolic blood pressure was measured by tail cuff technique at 7 and 14 days. The clinical outcome at 14 days was determined by counting the number of necrotic or lost nails in the ischemic foot as well as the number of auto-amputation events. At 14 days from ischemia induction, hindlimbs of anaesthetized mice were perfusion-fixed, both adductors were coded and histologically processed. Capillary and arteriolar densities (ncap/mm^2 and nart/mm^2) were determined.

[4] = tested on: COX2; experiment: Western blot of COX2 protein in LPS-stimulated RAW264.7 cells; assay type: cell-based
Protocol: as §1

[5] = tested on: Tissue factor (TF); experiment: Tissue factor expression in LPS-stimulated blood mononuclear cells; assay type: cell-based; details: 50 μM; human MNC, LPS 1 μg/ml, 3 h; mean ± SEM
Protocol: Tissue factor (TF) is a major regulator of homeostasis and thrombosis. […] MNC were obtained from fresh blood by density gradient (Ficoll-Hypaque) centrifugation and resuspended in serum-free RPMI medium at the concentration of 2−3×10^6/ml. […] After incubation for 3 h at 37° C., TF expression in MNC was assessed by 1) functional assay (Semeraro et al., 1983. Immunology; 50: 529-35) on intact cells; 2) immunological assay (Imubind, Instrumentation Laboratory, Milan) on Triton X-100 cell extracts; 3) RT-PCR (Rossiello et al. Thromb Haemost 2000; 84:453-59).

[6] = tested on: isolated rabbit thoracic aorta preparations; experiment: Vascular tone: relaxation of noradrenaline-precontracted isolated aortic rings; details: Oryctolagus cuniculus; rabbit thoracic aorta rings contracted with noradrenaline 1 μM, functional endothelium; ± sem; read-out: IC50 (concentration giving 50% reversal of NA contraction)
Protocol: The ability of statin nitroderivatives to induce vasorelaxation in comparison to native statins, was tested in vitro in isolated rabbit thoracic aorta preparations (Wanstall J. C. et al., Br. J. Pharmacol., 134:463-472, 2001). Male New Zealand rabbits were anaesthetized with thiopental-Na (50 mg/kg, iv), sacrificed by exsanguinations and then the thorax was opened and the aorta dissected. Single ring preparations (4 mm in length) of thoracic aorta were set up in physiological salt solution (PSS) at 37° C. in small organ chambers (5 ml). The composition of PSS was (mM): NaCl 130, NaHCO3 14.9, KH2PO4 1.2, MgSO4 1.2, HEPES 10, CaCl2, ascorbic acid […] and glucose 1.1 (95% O2/5% CO2; pH 7.4). Each ring was mounted under 2 g passive tension in 5 ml organ bath. Isometric tension was recorded with a Grass transducer (Grass FT03) attached to a BIOPAC MP150 System. Preparations were allowed to equilibrate for 1 h, then contracted submaximally with noradrenaline (NA, 1 μM) and, when the contraction was stable, acetylcholine (ACh, 10 μM) was added. A relaxant response to ACh indicated the presence of a functional endothelium. When a stable precontraction was reached, a cumulative concentration-response curve to either of the vasorelaxant agents was obtained in the presence of a functional endothelium. Time intervals between different concentrations were based on the time needed to reach a full response. Moreover, the effect of the soluble guanylyl cyclase inhibitor ODQ (1-H-(1,2,4)-oxadiazol(4,3-a)quinoxalin-1-one) on the dilator responses elicited by the compounds was examined preincubating the aortic rings with ODQ (10 μM) for 20 min. Responses to vasorelaxing agents were measured from the plateau of NA contraction. The IC50 (concentration giving 50% reversal of NA contraction) was interpolated from the plots of relaxant-response vs log molar concentration of tested compound.
During the experimental period, the plateau obtained with NA was stable without significant spontaneous loss of contraction in the aortic rings.
As shown in the following Table 1, the nitroderivatives of the invention were able to induce relaxation in a concentration-dependent manner. Furthermore, in experiments performed in presence of ODQ (10 μM), the vasorelaxant responses to all the tested drugs were inhibited.
IC50 is the concentration which inhibits 50% of the response. Effects of Nitrostatin Derivatives on Inflammatory Pathways In Vitro

[7] = tested on: U46619-induced pulmonary thromboembolism; experiment: Protection from U46619-induced pulmonary thromboembolism; assay type: in vivo, CD-1 mice; details: mice, U46619 0.2 mg/kg iv
Protocol: 1 (equimolar doses) or vehicle. 1-3 hrs later the animals were injected into a tail vein with U46619 (0.2 mg/kg), a stable TxA2 analog. As previously described (Momi et al., Eur. J. Pharmacol. 397:177-185, 2000), this dose of the agonist caused 80 to 90% mortality within 3 min. in the control group. In each experimental session at least six animals per treatment group were tested; control groups were run at the beginning and at the end of every experimental session. Protection against agonist-induced thromboembolism was expressed as (1-Tdrug/Tsaline)×100, were Tdrug is the mortality rate in drug-treated mice, and Tsaline is the number of non surviving control animals which received […] only.
The results were expressed as percentage of protection from U46619-induced pulmonary thromboembolism as compared to the control group.

[8] = tested on: human platelets; experiment: U46619-induced platelet aggregation in vitro; assay type: cell-based
Protocol: Platelets are prominent components of the thrombi.
Compounds were incubated at 37° C. for 2 min before adding U46619, an aggregating agent, TxA2 analog. Aggregation was followed for 5 min and the maximal amplitude (cm) was measured. DMSO (0.05%) was used as vehicle. Compounds were tested at concentrations ranging from 50 to 200 μM.

[9] = 10 μM, RAW264.7, LPS 1 μg/ml 16 h, negative = increase vs LPS
[10] = 100 μM, RAW264.7, LPS 1 μg/ml 8 h
[11] = mice, 14 days after ischemia, in chow pravastatin 40 mg/kg or nitroderivative 48 mg/kg

CC(C)c1c(C(=O)Nc2ccccc2)c(-c2ccccc2)c(-c2ccc(F)cc2)n1CC[C@@H](O)C[C@@H](O)CC(=O)OCCCCO[N+](=O)[O-] [Compound of EX. 7, (βR,δR)-2(4-fluorophenyl)-β,δ-dihydroxy-5-(1-methylethyl)-3-phenyl-4-[(phenylamino)carbon-yl]-1H-pyrrole-1-heptanoic acid 4-(nitrooxy)butyl ester]
iNOS (% reduction vs LPS) [1, 9]: 45 ± 9%

CC[C@H](C)C(=O)O[C@H]1C[C@H](O)C=C2C=C[C@H](C)[C@H](CC[C@@H](O)C[C@@H](O)CC(=O)O)[C@H]21 [Pravastatin, pravastatin, reference compound]
iNOS (% reduction vs LPS) [1, 10]: 4.7 ± 3.6%
Leukocyte adhesion (%) (thoracic aorta) [2]: 23.0 ± 6%
N capillaries/mm^2 in contralateral adductor muscle [3, 11]: 736 ± 40 N capillaries/mm^2
COX2 (% reduction vs LPS) [4, 10]: 26.9 ± 7.9%
TF in LPS-stimulated MNC: Activity [5]: 189 ± 37.6 AU/10^6 cells
TF in LPS-stimulated MNC: Antigen [5]: 4.4 ± 1.3 ng/mg protein
IC50 [6]: > 30 µM
Antithrombotic activity (%) 1-h before challenge ([7]; 10 mg/kg ip): 15%
Antithrombotic activity (%) 3-h before challenge ([7]; 10 mg/kg ip): 10%
Antithrombotic activity (%) 1-h before challenge ([7]; 20 mg/kg ip): 25%
Antithrombotic activity (%) 3-h before challenge ([7]; 20 mg/kg ip): 20%

CC(C)n1c(/C=C/C(O)CC(O)CC(=O)O)c(-c2ccc(F)cc2)c2ccccc21 (stereo not shown) [Fluvastatin, fluvastatin, reference compound]
iNOS (% reduction vs LPS) [1, 9]: −14.8 ± 5.9%
COX2 (% reduction vs LPS) [4, 9]: −2.8 ± 3.7%
IC50 [6]: > 30 µM

CC(C)c1c(C(=O)Nc2ccccc2)c(-c2ccccc2)c(-c2ccc(F)cc2)n1CC[C@@H](O)C[C@@H](O)CC(=O)O [Atorvastatin, atorvastatin, reference compound]
iNOS (% reduction vs LPS) [1, 9]: 20 ± 14%

CC[C@H](C)C(=O)O[C@H]1C[C@H](O)C=C2C=C[C@H](C)[C@H](CCC(O)C[C@H](O)CC(=O)OCCCCO[N+](=O)[O-])[C@H]21 (relative stereo) [Compound of EX. 1, [1S-[1α(βS*,δS*),2α,6α,8β-(R*),8aα]]-1,2,6,7,8,8a-hexahydro-β,δ,6-trihydroxy-2-methyl-8-(2-methyl-1-oxobutoxy)-1-naphthaleneheptanoic acid 4-(nitrooxy)butyl ester]
iNOS (% reduction vs LPS) [1, 10]: 55.2 ± 11.8%
Leukocyte adhesion (%) (thoracic aorta) [2]: 9.3 ± 3 %
clinical outcome in mice with hindlimb ischemia ([3]; 14 days, necrotic or lost nails, auto-amputation events): ameliorates clinical outcome
N capillaries/mm^2 in contralateral adductor muscle [3, 11]: 660 ± 40 N capillaries/mm^2
N capillaries/mm^2 in ischemic adductor muscle [3, 11]: 1116 ± 53^§§**^++ N capillaries/mm^2
IC50 ([8]; Platelet, human gel filtered platelets, read-out: Platelet aggregation (GFP) IC50): 101 ± 10 µM
IC50 ([8]; human platelet rich plasma, read-out: Platelet aggregation (PRP) IC50): 74 ± 7 µM
COX2 (% reduction vs LPS) [4, 10]: 74.9 ± 4.4%
TF in LPS-stimulated MNC: Activity [5]: 16 ± 4.9 AU/10^6 cells
TF in LPS-stimulated MNC: Antigen [5]: 0.65 ± 0.11 ng/mg protein
IC50 [6]: 2.4 ± 0.6 µM
Antithrombotic activity (%) 1-h before challenge ([7]; 12 mg/kg ip): 30* %
Antithrombotic activity (%) 3-h before challenge ([7]; 12 mg/kg ip): 40* %
Antithrombotic activity (%) 1-h before challenge ([7]; 24 mg/kg ip): 40*+ %
Antithrombotic activity (%) 3-h before challenge ([7]; 24 mg/kg ip): 55*+ %

CC(C)n1c(/C=C/[C@@H](O)C[C@@H](O)CC(=O)OCCCCO[N+](=O)[O-])c(-c2ccc(F)cc2)c2ccccc21 (relative stereo) [Compound of EX. 3, [R*,S*-(E)]-7-[3-(4-fluorophenyl)-1-(1-methylethyl)-1H-indol-2-yl]-3,5-dihydroxy-6-heptanoic acid 4-(nitrooxy)butyl ester]
iNOS (% reduction vs LPS) [1, 9]: 44.8 ± 11.9%
COX2 (% reduction vs LPS) [4, 9]: 53.9 ± 6.1%
IC50 [6]: 13.4 ± 3.5 µM

CC(C)n1c(/C=C/[C@@H](O)C[C@@H](O)CC(=O)OCc2ccc(CO[N+](=O)[O-])cc2)c(-c2ccc(F)cc2)c2ccccc21 (relative stereo) [Compound of EX. 4, [R*,S*-(E)]-7-[3-(4-fluorophenyl)-1-(1-methylethyl)-1H-indol-2-yl]-3,5-dihydroxy-6-heptanoic acid 4-(nitrooxymethyl)benzyl ester]
iNOS (% reduction vs LPS) [1, 9]: 22.4 ± 9.6%
COX2 (% reduction vs LPS) [4, 9]: 19.4 ± 6.5%
IC50 [6]: 8.7 ± 3.3 µM
